Values of other authors, collected in patent US7534771B2, “Tricyclic-nucleoside prodrugs for treating viral infections” (SmithKline Beecham Corporation, priority 2005, dated 2009).

Details: patients treated at currently recommended doses

## NC(=O)c1ncn([C@@H]2O[C@H](CO)[C@@H](O)[C@H]2O)n1 [Ribavirin]
  patients with significant hemolysis: 10-20%
